Measured values reported in ChEMBL document CHEMBL6078725, “Discovery of novel xanthohumol C derivatives regulating XRCC2 transcription and expression for the treatment of colorectal cancer” (Bioorg Med Chem, 2025).
Each block holds one compound with its values, some of them ahead of it. Active and inactive are the calls of the source. The calls are words filed in the database; no cut-off is given here.

Assays:
RKO [1] = assay: Antiproliferative activity against human RKO cells incubated for 48 hrs by MTS assay; assay type: functional, cell-based
HCT-116 [2] = assay: Antiproliferative activity against human HCT-116 cells incubated for 48 hrs by MTS assay; assay type: functional, cell-based; conditions: HCT-116, 48 h
HCT-116 [3] = assay: Antitumor activity against human HCT-116 cells xenografted in BALB/c mouse assessed as increase in DNA damage by measuring gamma-H2AX level at 10 to 40 mg/kg, ip administered for 2 weeks by immunohistochemical analysis; assay type: functional, organism-based; conditions: dose 10-40 mg/kg
HCT-116 [4] = assay: Inhibition of DNA replication in human HCT-116 cells assessed as reduction in EdU positive cells incubated for 48 hrs by EdU staining based fluorescence microscopic analysis; assay type: functional, cell-based; conditions: dose 1.25-5 µM
[5] = Half life in male Sprague-Dawley rat at 10 mg/kg, po measured upto 48 hrs by UHPLC-MS/MS analysis; assay type: ADME, organism-based; conditions: in vivo
[6] = Acute toxicity in BALB/c mouse assessed as change in heart weight at 10 to 90 mg/kg, po measured for 7 days; assay type: organism-based; conditions: in vivo, 168 h, dose 10-90 mg/kg, time 7 day
HCT-116 [7] = assay: Antitumor activity against human HCT-116 cells xenografted in BALB/c mouse assessed as inhibition of tumor proliferation at 10 to 40 mg/kg, ip administered for 2 weeks by Ki67 staining based immunohistochemical analysis; assay type: functional, organism-based; conditions: dose 10-40 mg/kg
[8] = AUC (0 to t) in male Sprague-Dawley rat at 10 mg/kg, po measured upto 48 hrs by UHPLC-MS/MS analysis; assay type: ADME, organism-based; conditions: in vivo
HCT-116 [9] = assay: Antitumor activity against human HCT-116 cells xenografted in BALB/c mouse assessed as inhibition of XRCC2 expression at 10 to 40 mg/kg, ip administered for 2 weeks by Western blot analysis; assay type: functional, organism-based; conditions: dose 10-40 mg/kg
HCT-116 [10] = assay: Inhibition of colony formation in human HCT-116 cells by crystal violet staining based light microscopic analysis; assay type: functional, cell-based; conditions: dose 1.25-5 µM
[11] = Acute toxicity in BALB/c mouse assessed as change in liver weight at 10 to 90 mg/kg, po measured for 7 days; assay type: organism-based; conditions: in vivo, 168 h, dose 10-90 mg/kg, time 7 day
[12] = Tmax in male Sprague-Dawley rat at 10 mg/kg, po measured upto 48 hrs by UHPLC-MS/MS analysis; assay type: ADME, organism-based; conditions: in vivo
[13] = Acute toxicity in BALB/c mouse assessed as change in spleen weight at 10 to 90 mg/kg, po measured for 7 days; assay type: organism-based; conditions: in vivo, 168 h, dose 10-90 mg/kg, time 7 day
[14] = Cmax in male Sprague-Dawley rat at 2 mg/kg, iv measured upto 8 hrs by UHPLC-MS/MS analysis; assay type: ADME, organism-based; conditions: in vivo
RKO [15] = assay: Inhibition of DNA replication in human RKO cells assessed as reduction in EdU positive cells incubated for 48 hrs by EdU staining based fluorescence microscopic analysis; assay type: functional, cell-based; conditions: dose 1.25-5 µM
HCT-116 [16] = assay: Inhibition of BRCA1 expression in human HCT-116 cells incubated for 48 hrs Western blot analysis; assay type: functional, cell-based; conditions: dose 1.25-5 µM
RKO [17] = assay: Inhibition of colony formation in human RKO cells by crystal violet staining based light microscopic analysis; assay type: functional, cell-based; conditions: dose 1.25-5 µM
[18] = Acute toxicity in BALB/c mouse assessed as change in body weight at 10 to 90 mg/kg, po measured for 7 days; assay type: organism-based; conditions: in vivo, 168 h, dose 10-90 mg/kg, time 7 day
[19] = Toxicity in BALB/c mouse implanted with human HCT-116 cells assessed as morphological changes in tumor t at 10 to 40 mg/kg, ip administered for 2 weeks by H and E staining based analysis; assay type: organism-based; conditions: in vivo, 336 h, dose 10-40 mg/kg
[20] = Toxicity in BALB/c mouse implanted with human HCT-116 cells assessed as change in body weight at 10 to 40 mg/kg, ip administered for 2 weeks; assay type: organism-based; conditions: in vivo, 336 h, dose 10-40 mg/kg
[21] = Acute toxicity in BALB/c mouse assessed as change in ALT level at 10 to 90 mg/kg, po measured for 7 days; assay type: organism-based; conditions: in vivo, 168 h, dose 10-90 mg/kg, time 7 day
[22] = Acute toxicity in BALB/c mouse assessed as morphological change in kidney at 10 to 90 mg/kg, po measured for 7 days by H and E staining based analysis; assay type: organism-based; conditions: in vivo, 168 h, dose 10-90 mg/kg, time 7 day
[23] = AUC (0 to infinity) in male Sprague-Dawley rat at 2 mg/kg, iv measured upto 8 hrs by UHPLC-MS/MS analysis; assay type: ADME, organism-based; conditions: in vivo
HCT-116 [24] = assay: Antitumor activity against human HCT-116 cells xenografted in BALB/c mouse assessed as inhibition of BRCA1 expression at 10 to 40 mg/kg, ip administered for 2 weeks by Western blot analysis; assay type: functional, organism-based; conditions: dose 10-40 mg/kg
[25] = Bioavailability in male Sprague-Dawley rat […] by UHPLC-MS/MS analysis; assay type: ADME, organism-based; conditions: in vivo
[26] = Acute toxicity in BALB/c mouse assessed as change in lung weight at 10 to 90 mg/kg, po measured for 7 days; assay type: organism-based; conditions: in vivo, 168 h, dose 10-90 mg/kg, time 7 day
HCT-116 [27] = assay: Induction of DNA damage in human HCT-116 cells assessed as increase in 53BP1 foci positive cells at 1.25 to 5 uM incubated for 48 hrs by immunofluorescence staining based analysis; assay type: functional, cell-based; conditions: dose 1.25-5 µM
HCT-116 [28] = assay: Inhibition of BRCA1 expression in human HCT-116 cells assessed as reduction in fluorescence intensity at 1.25 to 5 uM incubated for 48 hrs immunofluorescence analysis; assay type: functional, cell-based; conditions: dose 1.25-5 µM
[29] = AUC (0 to t) in male Sprague-Dawley rat at 2 mg/kg, iv measured upto 8 hrs by UHPLC-MS/MS analysis; assay type: ADME, organism-based; conditions: in vivo
[30] = Acute toxicity in BALB/c mouse assessed as morphological change in liver at 10 to 90 mg/kg, po measured for 7 days by H and E staining based analysis; assay type: organism-based; conditions: in vivo, 168 h, dose 10-90 mg/kg, time 7 day
HCT-116 [31] = assay: Inhibition of XRCC2 expression in human HCT-116 cells incubated for 48 hrs Western blot analysis; assay type: functional, cell-based; conditions: dose 1.25-5 µM
RKO [32] = assay: Inhibition of colony formation in human RKO cells assessed as reduction in colony formation at 5 uM by crystal violet staining based light microscopic analysis; assay type: functional
[33] = Half life in male Sprague-Dawley rat at 2 mg/kg, iv measured upto 8 hrs by UHPLC-MS/MS analysis; assay type: ADME, organism-based; conditions: in vivo
[34] = Cmax in male Sprague-Dawley rat at 10 mg/kg, po measured upto 48 hrs by UHPLC-MS/MS analysis; assay type: ADME, organism-based; conditions: in vivo
HCT-116 [35] = assay: Antitumor activity against human HCT-116 cells xenografted in BALB/c mouse assessed as inhibition of tumor growth at 10 to 40 mg/kg, ip administered for 2 weeks; assay type: functional, organism-based; conditions: dose 10-40 mg/kg
[36] = Oral bioavailability in male Sprague-Dawley rat at 10 mg/kg measured upto 48 hrs by UHPLC-MS/MS analysis; assay type: ADME, organism-based; conditions: in vivo
HCT-116 [37] = assay: Induction of cell cycle arrest in human HCT-116 cells at 5 uM incubated for 2 to 48 hrs by PI staining based flow cytometry analysis; assay type: functional; conditions: time 2-48 hrs
HCT-116 [38] = assay: Inhibition of colony formation in human HCT-116 cells assessed as reduction in colony formation at 5 uM by crystal violet staining based light microscopic analysis; assay type: functional
[39] = Acute toxicity in BALB/c mouse assessed as change in creatine level at 10 to 90 mg/kg, po measured for 7 days; assay type: organism-based; conditions: in vivo, 168 h, dose 10-90 mg/kg, time 7 day
[40] = Tmax in male Sprague-Dawley rat at 2 mg/kg, iv measured upto 8 hrs by UHPLC-MS/MS analysis; assay type: ADME, organism-based; conditions: in vivo
[41] = AUC (0 to infinity) in male Sprague-Dawley rat at 10 mg/kg, po measured upto 48 hrs by UHPLC-MS/MS analysis; assay type: ADME, organism-based; conditions: in vivo
[42] = Acute toxicity in BALB/c mouse assessed as change in kidney weight at 10 to 90 mg/kg, po measured for 7 days; assay type: organism-based; conditions: in vivo, 168 h, dose 10-90 mg/kg, time 7 day
[43] = Acute toxicity in BALB/c mouse assessed as change in AST level at 10 to 90 mg/kg, po measured for 7 days; assay type: organism-based; conditions: in vivo, 168 h, dose 10-90 mg/kg, time 7 day

SMILES: COc1cc2c(c(O)c1C(=O)/C=C/c1ccccc1N1CCN(C)CC1)C=CC(C)(C)O2
Activity (HCT-116 [3]): Active
inhibition (HCT-116 [4]): Dose-dependent-effect
half-life [5]: 69.3 h
Activity [6]: Non-toxic
IC50 (RKO [1]): 4.01 µM
Activity (HCT-116 [7]): Active
AUC(0-t) at 48 h [8]: 1270 µg·h/mL
Activity (HCT-116 [9]): Active
inhibition (HCT-116 [10]): Dose-dependent-effect
Activity [11]: Non-toxic
Tmax [12]: 4 h
Activity [13]: Non-toxic
Cmax [14]: 359 ng/mL
inhibition (RKO [15]): Dose-dependent-effect
inhibition (HCT-116 [16]): Dose-dependent-effect
inhibition (RKO [17]): Dose-dependent-effect
Activity [18]: Non-toxic
Activity [19]: Non-toxic
Activity [20]: Non-toxic
Activity [21]: Non-toxic
IC50 (HCT-116 [2]): 5.4 µM
Activity [22]: Non-toxic
AUC [23]: 1.61 µg·h/mL
Activity (HCT-116 [24]): Active
bioavailability [25]: 37.5%
Activity [26]: Non-toxic
Activity (HCT-116 [27]): Active
inhibition (HCT-116 [28]): Active
AUC(0-t) at 8 h [29]: 866 µg·h/mL
Activity [30]: Non-toxic
inhibition (HCT-116 [31]): Dose-dependent-effect
inhibition at 5 µM (RKO [32]): 2%
t1/2 [33]: 0.82 h
Cmax [34]: 152 ng/mL
Activity (HCT-116 [35]): Active
bioavailability [36]: 37.5%
Activity (HCT-116 [37]): Active
inhibition at 5 µM (HCT-116 [38]): 2%
Activity [39]: Non-toxic
Tmax [40]: 2.28 min
AUC(0-inf) [41]: 3 µg·h/mL
Activity [42]: Non-toxic
Activity [43]: Non-toxic

SMILES: COc1cc2c(c(OC)c1C(=O)/C=C/c1ccccc1)C=CC(C)(C)O2
IC50 (RKO [1]): 20.4 µM
IC50 (HCT-116 [2]): 22.7 µM

SMILES: COc1cccc(/C=C/C(=O)c2c(OC)cc3c(c2O)C=CC(C)(C)O3)c1OC
IC50 (RKO [1]): 13.9 µM
IC50 (HCT-116 [2]): 23.1 µM

SMILES: COc1cc(O)ccc1/C=C/C(=O)c1c(OC)cc2c(c1O)C=CC(C)(C)O2
IC50 (RKO [1]): 28.4 µM
IC50 (HCT-116 [2]): 32.1 µM

Further lines, with some results ahead:

IC50 (HCT-116 [2]): > 200 µM
SMILES: COc1cc2c(c(O)c1C(=O)/C=C/c1ccc(N3CCCC3)cc1)C=CC(C)(C)O2
IC50 (RKO [1]): > 200 µM

IC50 (HCT-116 [2]): 25.1 µM
SMILES: COc1cccc(/C=C/C(=O)c2c(OC)cc3c(c2O)C=CC(C)(C)O3)c1
IC50 (RKO [1]): 24.4 µM

IC50 (HCT-116 [2]): 46.4 µM
SMILES: COc1cc2c(c(OC)c1C(=O)/C=C/c1ccc(O)cc1)C=CC(C)(C)O2
IC50 (RKO [1]): 25.6 µM

IC50 (HCT-116 [2]): 25 µM
SMILES: COc1ccc(/C=C/C(=O)c2c(OC)cc3c(c2O)C=CC(C)(C)O3)cc1O
IC50 (RKO [1]): 18.3 µM

IC50 (HCT-116 [2]): 154 µM
SMILES: COc1cc2c(c(O)c1C(=O)/C=C/c1ccc(Br)cc1)C=CC(C)(C)O2
IC50 (RKO [1]): 157 µM
